Assay results: the NIST ThermoML archive (doi:10.1016/j.jct.2008.09.002)

Tests used:
[1] = xn = mol fraction of the nth substance listed; details: 101.3 kPa, Liquid, Vibrating tube method
[2] = molar heat capacity at constant pressure; xn = mol fraction of the nth substance listed; details: 101.3 kPa, Liquid, Small sample (50 mg) DSC

CCCCn1cc[n+](C)c1.COS(=O)(=O)[O-] [1-butyl-3-methylimidazolium methyl sulfate] + C[N+](=O)[O-]
Details	mass density, [1] [kg/m3]	molar heat capacity at constant pressure, [2] [J/K/mol]
293.15 K, x1 = 0.0522	1158.1	122.1
293.15 K, x1 = 0.1	1168.5	136.5
293.15 K, x1 = 0.1966	1182.1	166.4
293.15 K, x1 = 0.3059	1191.3	200.5
293.15 K, x1 = 0.4061	1196.9	231.4
293.15 K, x1 = 0.5025	1200.8	261.5
293.15 K, x1 = 0.5889	1203.5	288
293.15 K, x1 = 0.6844	1205.9	317.2
293.15 K, x1 = 0.7832	1207.8	347.4
293.15 K, x1 = 0.8654	1209.1	372.6
293.15 K, x1 = 0.9289	1210	392.1
298.15 K, x1 = 0.0522	1152.1	122.4
298.15 K, x1 = 0.1	1163	137
298.15 K, x1 = 0.1966	1177.3	167
298.15 K, x1 = 0.3059	1186.9	201.3
298.15 K, x1 = 0.4061	1192.8	232.5
298.15 K, x1 = 0.5025	1196.9	262.7
298.15 K, x1 = 0.5889	1199.8	289.4
298.15 K, x1 = 0.6844	1202.2	318.9
298.15 K, x1 = 0.7832	1204.3	349.2
298.15 K, x1 = 0.8654	1205.7	374.6
298.15 K, x1 = 0.9289	1206.7	394.3
303.15 K, x1 = 0.0522	1146.1	122.8
303.15 K, x1 = 0.1	1157.5	137.5
303.15 K, x1 = 0.1966	1172.4	167.7
303.15 K, x1 = 0.3059	1182.6	202.3
303.15 K, x1 = 0.4061	1188.7	233.6
303.15 K, x1 = 0.5025	1193	263.9
303.15 K, x1 = 0.5889	1196	290.9
303.15 K, x1 = 0.6844	1198.6	320.6
303.15 K, x1 = 0.7832	1200.8	351.1
303.15 K, x1 = 0.8654	1202.3	376.7
303.15 K, x1 = 0.9289	1203.3	396.5
308.15 K, x1 = 0.0522	1140.1	123.3
308.15 K, x1 = 0.1	1152	138.1
308.15 K, x1 = 0.1966	1167.6	168.4
308.15 K, x1 = 0.3059	1178.2	203.2
308.15 K, x1 = 0.4061	1184.7	234.8
308.15 K, x1 = 0.5025	1189.2	265.1
308.15 K, x1 = 0.5889	1192.3	292.4
308.15 K, x1 = 0.6844	1195	322.2
308.15 K, x1 = 0.7832	1197.4	352.9
308.15 K, x1 = 0.8654	1199	378.7
308.15 K, x1 = 0.9289	1200	398.7
313.15 K, x1 = 0.0522	1134.1	123.8
313.15 K, x1 = 0.1	1146.5	138.7
313.15 K, x1 = 0.1966	1162.8	169.1
313.15 K, x1 = 0.3059	1173.9	204.1
313.15 K, x1 = 0.4061	1180.6	235.9
313.15 K, x1 = 0.5025	1185.3	266.3
313.15 K, x1 = 0.5889	1188.6	293.8
313.15 K, x1 = 0.6844	1191.5	323.9
313.15 K, x1 = 0.7832	1193.9	354.7
313.15 K, x1 = 0.8654	1195.6	380.8
313.15 K, x1 = 0.9289	1196.6	400.8
318.15 K, x1 = 0.0522	1128.1	124.2
318.15 K, x1 = 0.1	1141	139.1
318.15 K, x1 = 0.1966	1158	169.7
318.15 K, x1 = 0.3059	1169.5	205
318.15 K, x1 = 0.4061	1176.6	237
318.15 K, x1 = 0.5025	1181.5	267.4
318.15 K, x1 = 0.5889	1184.9	295.3
318.15 K, x1 = 0.6844	1187.9	325.6
318.15 K, x1 = 0.7832	1190.4	356.5
318.15 K, x1 = 0.8654	1192.2	382.8
318.15 K, x1 = 0.9289	1193.3	403
